Experimental data: patent EP4678638A1, “NEW E3 UBIQUITIN LIGASE LIGAND, PROTEIN DEGRADATION AGENT AND USE THEREOF” (priority 2023, dated 2024)

What was measured:
[1] = tested on: CCRF-CEM; test: CCK-8 proliferation, CCRF-CEM; assay type: cell-based, Human; settings: Homo sapiens, CCRF-CEM; CCK-8; 96 hours; read-out: Inhibitory activity (IC50) on tumor cell proliferation, CCRF-CEM
Outline: (§1)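 Tumor cells were cultured at 37°C with 5% CO2, seeded, and after 24h treated with compounds at 10 concentrations starting at 10µM (5-fold serial dilutions).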

[2] = tested on: SU-DHL-4; test: CCK-8 proliferation, SU-DHL-4; assay type: cell-based; settings: Homo sapiens, 72 hours, read-out: Inhibitory activity (IC50) on tumor cell proliferation, SU-DHL-4
Protocol: (§2) The tumor cells used herein were cultured in a cell culture medium listed in table A1 at 37°C in an incubator with 5% CO2. Prior to experimentation, all cell lines used were correctly identified by STR profiling, and tested negative for mycoplasma contamination using a mycoplasma detection kit through routine screenings. Table A1. Tumor cells and cell culture medium used in the present disclosure
(§3) IC50 values of the compounds of the present disclosure (including the compounds in Table 1, and compounds of examples) were measured using the Meilun Cell Counting Kit-8 kit from Dalian Meilun Biotech Co., Ltd. Assay details are as follows: tumor cells were seeded in a 96-well plate at a density listed in Table A2. After 24h, 100 µL of the inoculated cells were treated with 0.5µL of the compounds of the present disclosure (including the compounds in Tables 1 and 2, and compounds of examples) at 10 different successively decreasing concentrations (starting at the highest concentration of 10µM; 5-fold serial dilutions). After the cells were treated with the compounds of the present disclosure for a period of time, the cell viability detection reagent was added to the culture medium for cell viability assessment according to the instructions provided with the CCK-8 kit. […] The growth inhibition of the compounds of the present disclosure on cells was plotted by Prism Graphpad software, and the IC50 values of the compounds of the present disclosure were calculated therefrom. […] Seeding protocol and treatment time for tumor cells

[3] = tested on: TMD8; test: CCK-8 proliferation, TMD8; assay type: cell-based; settings: Homo sapiens, TMD8; CCK-8; 72 hours; read-out: Inhibitory activity (IC50) on tumor cell proliferation, TMD8
Protocol: as §2, §3

[4] = tested on: Jurkat; test: CCK-8 proliferation, Jurkat; assay type: cell-based, Human; settings: Homo sapiens, Jurkat; CCK-8; 96 hours; read-out: Inhibitory activity (IC50) on tumor cell proliferation, Jurkat
Outline: as §1

[5] = tested on: DU-145; test: CCK-8 proliferation, DU-145; assay type: cell-based; settings: Homo sapiens, 96 hours, read-out: Inhibitory activity (IC50) on tumor cell proliferation, DU-145
Protocol: as §2, §3

[6] = molecular target: T1, CDK9 (Homo sapiens, UniProt P50750); test: Western blot degradation of CDK9 (MDA-MB-231 Cell); assay type: cell-based; settings: Table D13
T1 construct: evaluate the effects of the compounds of the present disclosure on the expression of target proteins in cells; endogenous in cells; host or cells: MDA-MB-231
Protocol: (§4) Conventional Western blot assay was performed to evaluate the effects of the compounds of the present disclosure on the expression of target proteins in cells.
(§5) (1) Cell Seeding and Protein Harvesting: The selected cells were processed according to the cell seeding procedure and protein harvesting procedure in Table III-2. Table III-2 Cell Seeding and Protein Harvesting Procedures
(§6) (2) To the collected supernatant, 5X SDS sample loading buffer was added, followed by denaturation at 95°C for 5 minutes. The denatured samples were then separated by SDS-PAGE electrophoresis on a polyacrylamide gel. Proteins were transferred to a nitrocellulose membrane (0.45 µm NC membrane), blocked with blocking buffer at room temperature for 1 hour, and subjected to antibody incubation and development procedures according to the antibody manufacturer's instructions (Cell Signaling Technology).
(§7) Half-Maximal Degradation Concentration value (the drug concentration required for degrading proteins by 50%, abbreviated as DC50) reads method: comparing the grayscale values of Western blot bands from drug-treated samples with those from blank DMSO-treated controls, and identifying the drug concentration range at which the grayscale value is half that of the DMSO-treated control bands.
(§8) DC50 values can be calculated using ImageJ software to measure grayscale values of Western blot bands from drug-treated samples. The concentration-response curve is fitted to estimate the drug concentration corresponding to half the grayscale value.
(§9) Target protein remaining (%) refers to the percentage of target protein remaining in hPBMC cells after treatment with protein degrader compounds.
(§10) Calculation method for target protein remaining (%): Use ImageJ software to measure grayscale values of Western blot bands from drug (protein degrader)-treated samples. The grayscale value of drug-treated bands is divided by that of internal control protein bands, and the resulting quotient is normalized to obtain the relative percentage of remaining target protein after protein degrader treatment.
(§11) Target protein degradation rate (%) = 100% - target protein remaining (%).

[7] = molecular target: T2, human Cereblon WT GST-tagged protein (Homo sapiens, UniProt Q96SW2); test: CRBN binding, HTRF (CEREBLON BINDING kit); settings: HTRF
T2 construct: purchased CISBIO 64BDCRBNPEH
Outline: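 After 3 h at room temperature, emission at 665 and 620 nm was measured in a homogeneous time-resolved fluorescence format. Compounds competed with a Thalidomide-Re probe for GST-tagged wild-type human CRBN, which was labelled with a Eu anti-GST antibody.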

[8] = molecular target: T3, ER (Homo sapiens, UniProt P03372); test: Western blot degradation of ER (MCF-7 Cell); assay type: cell-based; settings: Table D12
T3 construct: evaluate the effects of the compounds of the present disclosure on the expression of target proteins in cells; endogenous in cells; host or cells: MCF-7
T3 sequence (P03372 1-595): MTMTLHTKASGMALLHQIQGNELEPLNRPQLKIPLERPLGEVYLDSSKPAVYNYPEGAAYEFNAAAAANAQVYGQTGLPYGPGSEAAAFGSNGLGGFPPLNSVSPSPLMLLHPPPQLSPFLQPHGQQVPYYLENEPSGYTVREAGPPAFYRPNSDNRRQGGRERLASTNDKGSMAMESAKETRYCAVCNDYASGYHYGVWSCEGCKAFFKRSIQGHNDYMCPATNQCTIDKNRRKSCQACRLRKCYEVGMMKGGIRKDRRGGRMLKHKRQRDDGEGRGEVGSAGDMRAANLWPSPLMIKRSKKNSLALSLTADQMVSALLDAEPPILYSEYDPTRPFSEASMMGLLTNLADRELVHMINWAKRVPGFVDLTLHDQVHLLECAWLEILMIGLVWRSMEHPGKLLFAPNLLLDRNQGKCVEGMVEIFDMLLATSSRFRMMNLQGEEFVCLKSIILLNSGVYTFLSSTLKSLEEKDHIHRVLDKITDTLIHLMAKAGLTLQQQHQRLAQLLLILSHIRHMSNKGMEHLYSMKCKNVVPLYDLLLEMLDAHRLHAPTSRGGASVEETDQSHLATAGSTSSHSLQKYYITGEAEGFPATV
Protocol: as §4, §5, §6, §7, §8, §9, §10, §11

[9] = tested on: H520; test: CCK-8 proliferation, H520; assay type: cell-based; settings: Homo sapiens, NCI-H520, 96 hours, read-out: Inhibitory activity (IC50) on tumor cell proliferation, H520
Protocol: as §2, §3

[10] = tested on: THP-1; test: CCK-8 proliferation, THP-1; assay type: cell-based; settings: Homo sapiens, 72 hours, read-out: Inhibitory activity (IC50) on tumor cell proliferation, THP-1
Outline: as §1

[11] = tested on: BXPC-3; test: CCK-8 proliferation, BXPC-3; assay type: cell-based; settings: Homo sapiens, 96 hours, read-out: Inhibitory activity (IC50) on tumor cell proliferation, BXPC-3
Protocol: as §2, §3

[12] = tested on: MGC-803; test: CCK-8 proliferation, MGC-803 (heads: MGC80-3, MGC803); assay type: cell-based, Human; settings: Homo sapiens, MGC-803; CCK-8; 72 hours; read-out: Inhibitory activity (IC50) on tumor cell proliferation, MGC80-3
Outline: as §1

T2 sequence (Q96SW2 whole entry): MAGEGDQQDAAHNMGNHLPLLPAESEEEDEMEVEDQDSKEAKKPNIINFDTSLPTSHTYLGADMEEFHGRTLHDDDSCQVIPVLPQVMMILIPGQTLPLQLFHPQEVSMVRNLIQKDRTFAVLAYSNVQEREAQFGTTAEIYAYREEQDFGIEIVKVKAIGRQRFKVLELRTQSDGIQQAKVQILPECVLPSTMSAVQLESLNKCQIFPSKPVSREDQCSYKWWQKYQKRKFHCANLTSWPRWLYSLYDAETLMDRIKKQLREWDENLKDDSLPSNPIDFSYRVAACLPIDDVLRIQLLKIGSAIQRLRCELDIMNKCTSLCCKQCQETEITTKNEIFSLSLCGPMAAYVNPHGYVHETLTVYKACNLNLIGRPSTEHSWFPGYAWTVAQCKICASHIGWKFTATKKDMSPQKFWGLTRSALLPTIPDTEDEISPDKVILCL
T1 sequence (P50750 whole entry): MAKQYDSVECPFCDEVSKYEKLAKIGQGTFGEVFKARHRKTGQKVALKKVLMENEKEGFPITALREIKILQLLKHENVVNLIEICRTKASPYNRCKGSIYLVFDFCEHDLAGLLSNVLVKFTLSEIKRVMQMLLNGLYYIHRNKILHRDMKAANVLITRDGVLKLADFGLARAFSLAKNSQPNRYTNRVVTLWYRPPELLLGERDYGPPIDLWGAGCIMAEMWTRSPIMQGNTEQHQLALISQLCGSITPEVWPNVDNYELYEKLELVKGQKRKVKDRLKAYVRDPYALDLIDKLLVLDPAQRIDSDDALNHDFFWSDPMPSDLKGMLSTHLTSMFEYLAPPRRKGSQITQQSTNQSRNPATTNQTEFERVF

Compound `O=C(NC1CCNCC1)c1[nH]ncc1NC(=O)c1c(Cl)cccc1Cl` [AT7519, reference compound] has an IC50 [1] of 0.5 to 1 µM, an IC50 [2] of 0.1 to 0.5 µM and an IC50 [3] of 0.5 to 1 µM. The IC50 [4] was 0.1 to 0.5 µM and the IC50 [5] was 0.5 to 1 µM.
With `Cn1ncc(-c2nc(NC3CCN(Cc4ccc(C5CCC(=O)NC5=O)cc4)CC3)ncc2Cl)c1CC1CC1` (centres unmarked) [GT-04050, 3-(4-((4-((5-chloro-4-(5-(cyclopropylmethyl)-1-methyl-1H-pyrazol-4-yl)pyrimidin-2-yl)amino)piperidin-1-yl)methyl)phenyl)piperidine-2,6-dione] the “Degradation of substrate protein CDK9 (substrate protein remaining %)” value [6] was “A (A is defined as 0% ≤ substrate protein remaining % ≤ 80%)”, the IC50 [4] was 0.1 to 0.5 µM and the IC50 [5] was 0.01 to 0.05 µM.
For `Cn1ncc(-c2nc(NC3CCN(Cc4ccc(C5CCC(=O)NC5=O)c(F)c4)CC3)ncc2Cl)c1CC1CC1` (centres unmarked) [GT-04051, 3-(4-((4-((5-chloro-4-(5-(cyclopropylmethyl)-1-methyl-1H-pyrazol-4-yl)pyrimidin-2-yl)amino)piperidin-1-yl)methyl)-2-fluorophenyl)piperidine-2,6-dione], the IC50 [1] was 0.5 to 1 µM, the “Degradation of substrate protein CDK9 (substrate protein remaining %)” value [6] was “A (A is defined as 0% ≤ substrate protein remaining % ≤ 80%)” and the IC50 [2] was 0.5 to 1 µM. For the same compound, the IC50 [3] was 0.5 to 1 µM and the IC50 [5] was 0.1 to 0.5 µM.
In the case of `N#CC1(CNc2nc(-c3cc(NC4CCN(Cc5ccc(C6CCC(=O)NC6=O)cc5)CC4)ncc3Cl)cs2)CCOCC1` (centres unmarked) [GT-04074, 4-(((4-(5-chloro-2-((1-(4-(2,6-dioxopiperidin-3-yl)benzyl)piperidin-4-yl)amino)pyridin-4-yl)thiazol-2-yl)amino)methyl)tetrahydro-2H-pyran-4-carbonitrile], the “Degradation of substrate protein CDK9 (substrate protein remaining %)” value [6] is reported as “A (A is defined as 0% ≤ substrate protein remaining % ≤ 80%)”.
In the case of `O=C1CCC(c2ccc(CN3CCC(n4cc(NC(=O)c5coc(-c6ccnc(NCC(F)(F)F)c6)n5)c(C(F)F)n4)CC3)cc2F)C(=O)N1` (centres unmarked) [GT-04087, N-(3-(difluoromethyl)-1-(1-(4-(2,6-dioxopiperidin-3-yl)-3-fluorobenzyl)piperidin-4-yl)-1H-pyrazol-4-yl)-2-(2-((2,2,2-trifluoroethyl)amino)pyridin-4-yl)oxazole-4-carboxamide], the IC50 [1] is reported as 0.001 to 0.01 µM, the “Degradation of substrate protein CDK9 (substrate protein remaining %)” value [6] is reported as “A (A is defined as 0% ≤ substrate protein remaining % ≤ 80%)” and the IC50 [2] is reported as 0.5 to 1 µM. For the same compound, the IC50 [3] was 0.05 to 0.1 µM, the IC50 [4] was 0.01 to 0.05 µM and the IC50 [5] was 0.5 to 1 µM.
With `O=C1CCC(c2ccc(CN3CCC(n4cc(NC(=O)c5coc(-c6ccnc(NCC(F)(F)F)c6)n5)c(C(F)F)n4)CC3)cc2)C(=O)N1` (centres unmarked) [GT-04121, N-(3-(difluoromethyl)-1-(1-(4-(2,6-dioxopiperidin-3-yl)benzyl)piperidin-4-yl)-1H-pyrazol-4-yl)-2-(2-((2,2,2-trifluoroethyl)amino)pyridin-4-yl)oxazole-4-carboxamide] the IC50 [1] was 0.01 to 0.05 µM, the “Degradation of substrate protein CDK9 (substrate protein remaining %)” value [6] was “A (A is defined as 0% ≤ substrate protein remaining % ≤ 80%)” and the “Inhibition rate (%) at 0.5µM” value ([7]; Table II-2, CRBN binding screening, at 0.5µM) was “a2 (20% < a2 ≤ 30%)”. The “Inhibition rate (%) at 2 µM” value ([7]; Table II-2, CRBN binding screening, at 2 µM) was “a6 (60% < a6 ≤ 80%)”, the IC50 [2] was 0.5 to 1 µM and the IC50 [3] was 0.1 to 0.5 µM. It also gave an IC50 [4] of 0.1 to 0.5 µM and an IC50 [5] of 0.1 to 0.5 µM.
With `CCC(=C(c1ccc(O)cc1)c1ccc(N2CCN(Cc3ccc(C4CCC(=O)NC4=O)cc3)CC2)cc1)c1ccc(O)cc1` (centres unmarked) [GT-04149, 3-(4-((4-(4-(1,2-bis(4-hydroxyphenyl)but-1-en-1-yl)phenyl)piperazin-1-yl)methyl)phenyl)piperidine-2,6-dione] the “Degradation of substrate protein ER (substrate protein remaining %)” value [8] was “A (A is defined as 0% ≤ substrate protein remaining % ≤ 80%)”.
In the case of `O=C1CCC(c2ccc(CN3CCN(C4CCN(c5ccc([C@@H]6c7ccc(O)cc7CC[C@@H]6c6ccccc6)cc5)CC4)CC3)cc2F)C(=O)N1` (stereo partly drawn) [GT-04670, 3-(2-fluoro-4-((4-(1-(4-((1R,2S)-6-hydroxy-2-phenyl-1,2,3,4-tetrahydronaphthalen-1-yl)phenyl)piperidin-4-yl)piperazin-1-yl)methyl)phenyl)piperidine-2,6-dione], the “Degradation of substrate protein ER (substrate protein remaining %)” value [8] is reported as “A (A is defined as 0% ≤ substrate protein remaining % ≤ 80%)” and the IC50 ([7]; Table II-1, CRBN binding) is reported as 0.5 to 1 µM.
`O=C1CCC(Nc2cccc(CN3CCN(C4CCN(c5ccc([C@@H]6c7ccc(O)cc7CC[C@@H]6c6ccccc6)cc5)CC4)CC3)c2)C(=O)N1` (stereo partly drawn) [GT-04674, 3-((3-((4-(1-(4-((1R,2S)-6-hydroxy-2-phenyl-1,2,3,4-tetrahydronaphthalen-1-yl)phenyl)piperidin-4-yl)piperazin-1-yl)methyl)phenyl)amino)pip eridine-2,6-dione] was tested, and the “Degradation of substrate protein ER (substrate protein remaining %)” value [8] was “A (A is defined as 0% ≤ substrate protein remaining % ≤ 80%)”.
With `Cc1ccc(-c2c(C)noc2C)cc1N(CC1CCN(Cc2ccc(N3CCC(=O)NC3=O)cc2F)CC1)c1ccc(C2(C#N)CC2)cc1` [GT-04973, 1-(4-((5-(3,5-dimethylisoxazol-4-yl)-2-methylphenyl)((1-(4-(2,4-dioxotetrahydropyrimidin-1(2H)-yl)-2-fluorobenzyl)piperidin-4-yl)methyl)amino)phenyl)cyclopropane-1-carbonitrile] the IC50 [9] was 0.5 to 1 µM, the IC50 [10] was 0.5 to 1 µM and the IC50 [11] was 0.1 to 0.5 µM. The IC50 [12] was 0.5 to 1 µM.
In the case of `C[C@]12CC[C@H](O)CC1=CC[C@@H]1[C@@H]2CC[C@]2(C)C(c3cccnc3)=CC[C@@H]12` [abiraterone], the IC50 [9] is reported as greater than 10 µM, the IC50 [10] is reported as greater than 10 µM and the IC50 [11] is reported as greater than 10 µM. The IC50 [12] was greater than 10 µM and the IC50 [5] was greater than 10 µM.
